# Results as given in patent US6495591B1, “Fungal efflux pump inhibitors” (Essential Therapeutics, Inc., priority 1997, dated 2002).
# Read-outs that look alike come from different tables or passages of the source.
# Legend:
# [1] = system: S. cerevisiae YEM-39 (CgCDR introduced); test: microbe, parasite or virus in culture; type: cell-based; conditions: Saccharomyces cerevisiae, read-out: MIC Mb alone
# [2] = system: S. cerevisiae YEM-38 (FLU1 introduced); test: microbe, parasite or virus in culture; type: cell-based; conditions: Saccharomyces cerevisiae, read-out: MIC Mb alone
# [3] = system: C. albicans YEM-12 (low level CDR1 expressor); test: microbe, parasite or virus in culture; type: cell-based
# [4] = system: C. glabrata YEM-16 (low level CgBEN and CgCDR expression); test: microbe, parasite or virus in culture; type: cell-based
# CDR1 efflux pump = CDR1 efflux pump (Candida albicans, UniProt P43071); test: Follow-up evaluation of screening hit, efflux pump inhibition; conditions: follow-up evaluation of screen hit
# Protocol: An exemplary screen uses C. albicans (e.g., ATCC10231) grown in YPD medium (medium described in “Guide to Yeast Genetics and Molecular Biology”, in Methods in Enzymolopy, vol. 194, pp.13, 1991,; Academic Press; Ed. C. Guthrie and G. Fink) at 30° C. […] Test and control cultures are inoculated with log-phase cells to provide approximately 10^3 CFU/ml. Cultures are incubated at 30° C. for 20-22 hrs. Cell concentration is determined by taking the OD600.
# [5] = system: C. albicans YEM-29 (BEN, FLU1 deleted); test: microbe, parasite or virus in culture; type: cell-based
# [6] = Cytotoxicity TC50 in K-562; type: cell-based; conditions: human, k-562 cells; compound alone
# [7] = system: S. cerevisiae YEM-40 (CgCDR, MF, introduced); test: microbe, parasite or virus in culture; type: cell-based; conditions: Saccharomyces cerevisiae, read-out: MIC Mb alone
# [8] = system: S. cerevisiae YEM-1 overexpressing CDR1 (C. albicans); test: microbe, parasite or virus in culture; type: cell-based; set-up: MIC Reduction Factor, fluconazole: unit not given beside the values; conditions: for MIC: Saccharomyces cerevisiae
# [9] = system: C. glabrata clinical isolates (n = 12); test: microbe, parasite or virus in culture; type: cell-based
# C. lipolytica = test: microbe, parasite or virus in culture; type: cell-based; conditions: strain 828B; MIC (80%) in YPD
# [10] = system: C. glabrata YEM-17 (CgCDR overexpressor); test: microbe, parasite or virus in culture; type: cell-based; set-up: MIC Reduction Factor, fluconazole / MIC Reduction Factor, itraconazole / MIC Reduction Factor, ketoconazole / MIC Reduction Factor, terbinafine: unit not given beside the values; conditions: for MIC: Nakaseomyces glabratus
# C. krusei YEM-71 = test: Broth dilution checkerboard, azoles and terbinafine with milbemycin α9 (Table 8); type: cell-based; set-up: MIC Reduction Factor, fluconazole / MIC Reduction Factor, itraconazole / MIC Reduction Factor, ketoconazole / MIC Reduction Factor, terbinafine: unit not given beside the values; conditions: for MIC: Pichia kudriavzevii
# [11] = Candida albicans, read-out: MIC Mb alone
# [12] = read-out: Terbinafine MIC in the presence of FEPImax
# [13] = YEM-1 (CDR1), milbemycin α9 at FEPImax
# [14] = YEM-1, milbemycin α9 at FEPImax
# [15] = YEM-17, milbemycin α9 at FEPImax
# [16] = YEM-71, milbemycin α9 at FEPImax
# Chain of CDR1 efflux pump (P43071 whole entry): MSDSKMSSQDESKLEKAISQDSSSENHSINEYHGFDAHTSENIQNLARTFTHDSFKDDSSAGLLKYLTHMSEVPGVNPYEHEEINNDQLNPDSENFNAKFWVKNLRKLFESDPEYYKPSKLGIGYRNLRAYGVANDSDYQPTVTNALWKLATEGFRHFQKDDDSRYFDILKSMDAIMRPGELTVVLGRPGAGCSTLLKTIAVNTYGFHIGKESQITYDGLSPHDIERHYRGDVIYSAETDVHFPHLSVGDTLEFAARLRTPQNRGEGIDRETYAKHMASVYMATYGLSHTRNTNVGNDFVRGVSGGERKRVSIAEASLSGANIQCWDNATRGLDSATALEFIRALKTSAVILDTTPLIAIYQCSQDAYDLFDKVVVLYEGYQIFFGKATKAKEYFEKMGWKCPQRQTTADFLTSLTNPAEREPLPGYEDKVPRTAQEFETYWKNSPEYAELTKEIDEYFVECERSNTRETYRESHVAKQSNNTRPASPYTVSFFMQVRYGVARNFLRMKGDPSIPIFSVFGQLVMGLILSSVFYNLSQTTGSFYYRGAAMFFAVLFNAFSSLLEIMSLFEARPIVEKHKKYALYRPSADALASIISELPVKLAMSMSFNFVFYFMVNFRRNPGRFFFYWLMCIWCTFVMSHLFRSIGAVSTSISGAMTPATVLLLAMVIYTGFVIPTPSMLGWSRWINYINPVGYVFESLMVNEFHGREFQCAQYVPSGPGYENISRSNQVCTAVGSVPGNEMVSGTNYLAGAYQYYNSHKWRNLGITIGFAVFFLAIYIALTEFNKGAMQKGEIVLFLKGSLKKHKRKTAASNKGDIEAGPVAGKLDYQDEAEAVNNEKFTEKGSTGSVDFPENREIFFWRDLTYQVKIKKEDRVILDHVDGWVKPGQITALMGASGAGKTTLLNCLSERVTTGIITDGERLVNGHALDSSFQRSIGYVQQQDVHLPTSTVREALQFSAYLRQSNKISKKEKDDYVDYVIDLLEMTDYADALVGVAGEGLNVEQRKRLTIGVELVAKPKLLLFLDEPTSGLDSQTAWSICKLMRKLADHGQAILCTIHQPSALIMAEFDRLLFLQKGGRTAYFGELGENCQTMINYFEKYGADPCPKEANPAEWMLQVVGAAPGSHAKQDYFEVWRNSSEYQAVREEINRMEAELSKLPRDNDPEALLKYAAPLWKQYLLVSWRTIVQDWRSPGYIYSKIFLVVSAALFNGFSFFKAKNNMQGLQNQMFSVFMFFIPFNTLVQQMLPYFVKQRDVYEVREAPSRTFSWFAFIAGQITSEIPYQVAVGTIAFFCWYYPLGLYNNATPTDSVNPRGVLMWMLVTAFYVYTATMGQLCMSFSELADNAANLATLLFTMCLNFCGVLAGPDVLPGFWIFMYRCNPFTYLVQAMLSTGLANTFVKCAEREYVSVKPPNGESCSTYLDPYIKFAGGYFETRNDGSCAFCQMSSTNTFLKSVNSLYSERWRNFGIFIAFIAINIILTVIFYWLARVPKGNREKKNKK
compound,measurement,setting,value
"CO[C@H]1C[C@@]2(O)/C(CO)=C/C=C/[C@H](C)C/C(C)=C/C[C@@H]3C[C@@H](C[C@]4(CC[C@H](C)[C@@H](C)O4)O3)OC(=O)[C@@H]2C=C1C [Compound 6, Milbemycin β1]",MIC,[1],8 µg/mL
same,MIC,[2],8 µg/mL
same,MIC,[3]; [11],32 µg/mL
same,"MIC of fluconazole, Flu + Mb (2.5 μg/ml)","[3]; YEM-12, milbemycin β1 2.5 μg/ml",0.25 µg/mL
same,MIC,"[4]; Nakaseomyces glabratus, read-out: MIC of milbemycin β1 (MB) alone",> 64 µg/mL
same,Fluconazole MIC with 2.5 μg/ml milbemycin β1,[4]; YEM-16,1 µg/mL
same,Fluconazole MIC with 5 μg/ml milbemycin β1,[4]; YEM-16,2 µg/mL
same,Fluconazole MIC with 10 μg/ml milbemycin β1,[4]; YEM-16,2 µg/mL
same,Fluconazole MIC with […] milbemycin β1,[4]; YEM-16,2 µg/mL
same,Inhibition of the CDR1 efflux pump,CDR1 efflux pump,inhibited the CDR1 efflux pump
same,MIC,[5]; [11],16 µg/mL
same,"MIC of fluconazole, Flu + Mb (2.5 μg/ml)","[5]; YEM-29, BEN, FLU1 deleted, milbemycin β1 2.5 μg/ml",0.03 µg/mL
same,CC50,[6],8 µM
same,MIC,[7],8 µg/mL
"C/C1=C\C[C@@H]2C[C@@H](C[C@]3(CC[C@H](C)[C@@H](C)O3)O2)OC(=O)[C@@H]2C=C(COC(=O)c3ccc[nH]3)[C@@H](O)[C@H]3OC/C(=C\C=C\[C@H](C)C1)[C@]32O [Compound 11, Milbemycin α9]",MIC,[8]; read-out: Milbemycin α9 MIC,> 64 µg/mL
same,MIC,[8]; [12],0.5 µg/mL
same,"FEPImax (minimal milbemycin α9 conc. for maximum MIC reduction), fluconazole",[8]; YEM-1 (CDR1),2 µg/mL
same,"FEPImax (minimal milbemycin α9 conc. for maximum MIC reduction), terbinafine",[8]; YEM-1 (CDR1),0.5 µg/mL
same,"Pump inhibition (%), fluconazole",[8]; [13],100%
same,"Pump inhibition (%), terbinafine",[8]; [13],100%
same,Fluconazole MIC in the presence of FEPImax,[8]; [14],0.5 µg/mL
same,"MIC Reduction Factor, fluconazole",[8]; [14],256
same,"Fluconazole MIC50, + milbemycin α9",[9],2 µg/mL
same,"Fluconazole MIC Range, + milbemycin α9",[9],<0.25 to 16 µg/mL
same,Reduction of fluconazole MIC90 by milbemycin α9,[9]; C. glabrata (n=12),16 fold
same,"Fluconazole MIC90, + milbemycin α9","[9]; C. glabrata n = 12, MIC (80%) in YPD",8 µg/mL
same,"Fluconazole MIC, + milbemycin α9",C. lipolytica,8 µg/mL
same,MIC,[10]; read-out: Milbemycin α9 MIC,> 64 µg/mL
same,MIC,[10]; [12],4 µg/mL
same,"FEPImax (minimal milbemycin α9 conc. for maximum MIC reduction), fluconazole",[10]; YEM-17,8 µg/mL
same,"FEPImax (minimal milbemycin α9 conc. for maximum MIC reduction), itraconazole",[10]; YEM-17,4 µg/mL
same,"FEPImax (minimal milbemycin α9 conc. for maximum MIC reduction), ketoconazole",[10]; YEM-17,16 µg/mL
same,"FEPImax (minimal milbemycin α9 conc. for maximum MIC reduction), terbinafine",[10]; YEM-17,4 µg/mL
same,Fluconazole MIC in the presence of FEPImax,[10]; [15],4 µg/mL
same,Itraconazole MIC in the presence of FEPImax,[10]; [15],0.125 µg/mL
same,Ketoconazole MIC in the presence of FEPImax,[10]; [15],0.06 µg/mL
same,"MIC Reduction Factor, fluconazole",[10]; [15],32
same,"MIC Reduction Factor, itraconazole",[10]; [15],1024
same,"MIC Reduction Factor, ketoconazole",[10]; [15],32
same,"MIC Reduction Factor, terbinafine",[10]; [15],32
same,MIC,"C. krusei YEM-71; YEM71, read-out: Milbemycin α9 MIC",> 64 µg/mL
same,MIC,"C. krusei YEM-71; YEM71, read-out: Terbinafine MIC in the presence of FEPImax",2 µg/mL
same,"FEPImax (minimal milbemycin α9 conc. for maximum MIC reduction), fluconazole",C. krusei YEM-71; YEM-71,1 µg/mL
same,"FEPImax (minimal milbemycin α9 conc. for maximum MIC reduction), itraconazole",C. krusei YEM-71; YEM-71,0.25 µg/mL
same,"FEPImax (minimal milbemycin α9 conc. for maximum MIC reduction), ketoconazole",C. krusei YEM-71; YEM-71,2 µg/mL
same,"FEPImax (minimal milbemycin α9 conc. for maximum MIC reduction), terbinafine",C. krusei YEM-71; YEM-71,8 ng/mL
same,Fluconazole MIC in the presence of FEPImax,C. krusei YEM-71; [16],8 µg/mL
same,Itraconazole MIC in the presence of FEPImax,C. krusei YEM-71; [16],8 ng/mL
same,Ketoconazole MIC in the presence of FEPImax,C. krusei YEM-71; [16],0.015 µg/mL
same,"MIC Reduction Factor, fluconazole",C. krusei YEM-71; [16],16
same,"MIC Reduction Factor, itraconazole",C. krusei YEM-71; [16],64
same,"MIC Reduction Factor, ketoconazole",C. krusei YEM-71; [16],128
same,"MIC Reduction Factor, terbinafine",C. krusei YEM-71; [16],64
